Assays:
Type in all cases: cell-based
SKNMC = assay: In vitro cytotoxicity (SRB), SKNMC; settings: Homo sapiens, SK-N-MC; SKNMC (neuroblastoma), 100 μg/ml, 48-hours; read-out: Percent growth inhibition
Procedure: (§1) The human cancer cell lines were obtained either from National center for cell science, Pune, India or National Cancer Institute, Frederick, Md., U.S.A. Cells were grown in tissue culture flasks in complete growth medium (RPMI-1640 medium with 2 mM glutamine, 100 μg/ml streptomycin, pH 7.4, sterilized by filtration and supplemented with 10% sterilized fetal calf serum and 100 units/ml penicillin before use) at 37° C. in an atmosphere of 5% CO2 and 90% relative humidity in a carbon dioxide incubator (WTB binder, Germany). The cells at subconfluent stage were harvested from the flask by treatment with trypsin (0.05% trypsin in PBS containing 0.02% EDTA) and suspended in complete growth medium. […]
(§2) Cell growth was measured by staining with sulforhodamine B dye (SRB). […] The optical density was recorded on ELISA reader at 540 run.
(§3) The cell growth in presence of test material was determined by subtracting mean OD value of respective blank from the mean OD value of experimental set. Like wise, cell growth in absence of test material (control set) and in presence of positive control was also determined. The percent cell growth in presence of test material was determined considering the cell growth in absence of test material as 100% and in turn percent inhibition was calculated.

IMR-32 = assay: In vitro cytotoxicity (SRB), IMR-32; settings: Homo sapiens; IMR-32 (neuroblastoma), 100 μg/ml, 48-hours; read-out: Percent growth inhibition
Procedure: as §1, §2, §3

SW-620 = assay: In vitro cytotoxicity (SRB), SW-620; settings: Homo sapiens, SW-620 (colon), 48-hours, read-out: Percent growth inhibition; for inhibition at 30 µg/mL: 30 μg/ml; for inhibition at 100 µg/mL: 100 μg/ml
Procedure: (§4) The human cancer cell lines were obtained either from National center for cell science, Pune, India or National Cancer Institute, Frederick, Md., U.S.A. Cells were grown in tissue culture flasks in complete growth medium (RPMI-1640 medium with 2 mM glutamine, 100 μg/ml streptomycin, pH 7.4, sterilized by filtration and supplemented with 10% sterilized fetal calf serum and 100 units/ml penicillin before use) at 37° C. in an atmosphere of 5% CO2 and 90% relative humidity in a carbon dioxide incubator (WTB binder, Germany). The cells at subconfluent stage were harvested from the flask by treatment with trypsin (0.05% trypsin in PBS containing 0.02% EDTA) and suspended in complete growth medium. Cells with cell viability of more than 97% by trypan blue exclusion technique were used for determination of cytotoxicity.
(§5) (−)-Matairesinol was dissolved in DMSO (dimethyl sulphoxide) to obtain a stock solution of 20 mg/ml. The stock solution was serially diluted with complete growth medium containing 50 μg/ml of gentamycin to obtain three working test solutions of 200, 60 and 20 μg/ml
(§6) The suspension of human cancer cell lines of required cell density in complete growth medium was prepared and cell suspension ([…] per wall) of each cell line) of 96-well tissue culture plate. Three additional wells of each cell line were also prepared for control. Two blank wells for control and each experimental and each experimental set for every cell line were also included that contained equivalent amount of complete growth medium only. The plates were incubated at 37° C. in an atmosphere of 5% CO2 and 90% relative humidity in a carbon dioxide incubator.
(§7) The working test solutions of (−)-Matairesinol of different concentrations (100 μl) were added after 24-hours incubation in all the wells including blanks of the experimental set. The equivalent amount of complete growth medium was added to control set.
(§8) The plates were further incubated for 48-hours (at 37° C. in an atmosphere of 5% CO2 and 90% relative humidity in a carbon dioxide incubator) after addition of test material etc. and then the cell growth was stopped by gently layering of 50 μl of TCA (50% trichloroacetic acid) on top of the medium in all the wells. The plates were incubated at 4° C. for one hour to fix the cells attached to the bottom of the wells. Liquids of all the wells were gently pipetted out and discarded. The plates were washed five times with distilled water to remove TCA, growth medium, low molecular weight metabolites, serum proteins etc. Plates were air-dried.
Cell growth was measured by staining with sulforhodamine B dye (SRB). The SRB solution (100 μl of 0.4% in 1% acetic acid) was added to each well and the plates were incubated at room temperature for 30 minutes. The unbound SRB was quickly removed by washing the wells five times with 1-% acetic acid and plates were air-dried. […] The optical density was recorded on ELISA reader at 540 run.
as §3

cancer cells of breast = assay: Growth inhibition of cancer cells of breast; settings: Homo sapiens; concentration of about 100 μg/ml; MCF-7 and ZR-75-1; read-out: inhibits the growth of cancer cells of breast
Procedure: as §1, §2, §3

A-549 = assay: In vitro cytotoxicity (SRB), A-549; settings: Homo sapiens, A549, A-549 (lung), 48-hours, read-out: Percent growth inhibition; for inhibition at 10 µg/mL: 10 μg/ml; for inhibition at 30 µg/mL: 30 μg/ml; for inhibition at 100 µg/mL: 100 μg/ml
Procedure: as §4, §5, §6, §7, §8
(§9) Cell growth was measured by staining with sulforhodamine B dye (SRB). The SRB solution (100 μl of 0.4% in 1% acetic acid) was added to each well and the plates were incubated at room temperature for 30 minutes. The unbound SRB was quickly removed by washing the wells five times with 1-% acetic acid and plates were air-dried. Tris-buffer (100 μl of 0.01 M, pH 10.4) was added to all the wells and plates were gently stirred for 5 minutes on a mechanical stirrer. The optical density was recorded on ELISA reader at 540 run.
as §3

cancer cells of lung = assay: Growth inhibition of cancer cells of lung; settings: Homo sapiens, A549; concentration of about 100 μg/ml; A-549; read-out: inhibits the growth of cancer cells of lung
Procedure: as §1, §2, §3

HT-29 = assay: In vitro cytotoxicity (SRB), HT-29; settings: Homo sapiens, HT-29 (colon), 48-hours, read-out: Percent growth inhibition; for inhibition at 30 µg/mL: 30 μg/ml; for inhibition at 100 µg/mL: 100 μg/ml
Procedure: as §4, §5, §6, §7
The plates were further incubated for 48-hours (at 37° C. in an atmosphere of 5% CO2 and 90% relative humidity in a carbon dioxide incubator) after addition of test material etc. and then the cell growth was stopped by gently layering of 50 μl of TCA (50% trichloroacetic acid) on top of the medium in all the wells. […]
as §2, §3

cancer cells of liver = assay: Growth inhibition of cancer cells of liver; settings: Homo sapiens; concentration of about 100 μg/ml; Hep-2; read-out: inhibits the growth of cancer cells of liver
Procedure: as §1, §2, §3

[1] = system: cancer cells of neuroblastoma; assay: Growth inhibition of cancer cells of neuroblastoma; settings: Homo sapiens; concentration of about 100 μg/ml; SKNMC and IMR-32; read-out: inhibits the growth of cancer cells of neuroblastoma
Procedure: as §1, §2, §3

human cancer cell lines = assay: In vitro cytotoxicity against the human cancer cell lines studied (panel); settings: for inhibition of cell growth of the human cancer cell lines studied (in words): 10, 30 and 100 μg/ml; for inhibition at 100 µg/mL: Homo sapiens, at 100 μg/ml, read-out: inhibition of cell growth, range over the human cancer cell lines studied
Procedure: as §4, §5, §6
The working test solutions of (−)-Matairesinol of different concentrations (100 μl) were added after 24-hours incubation in all the wells including blanks of the experimental set. The equivalent amount of complete growth medium was added to control set. […]
as §2, §3
In vitro cytotoxicity of (−)-matairesinol was determined against human breast (MCF-7 & ZR-75-1), neuroblastoma (SK-N-MC & IMR-32), cervix (SiHa), colon (Colo-205, HT-29 & SW-620), liver (HEP-2) and lung (A-549) cancer cell lines. […]

SiHa = assay: In vitro cytotoxicity (SRB), SiHa; settings: Homo sapiens, SiHa (cervix), 48-hours, read-out: Percent growth inhibition; for inhibition at 10 µg/mL: 10 μg/ml; for inhibition at 30 µg/mL: 30 μg/ml; for inhibition at 100 µg/mL: 100 μg/ml
Procedure: as §4, §5, §6, §7, §8, §9, §3

Colo-205 = assay: In vitro cytotoxicity (SRB), Colo-205; settings: Homo sapiens, Colo-205 (colon), 48-hours, read-out: Percent growth inhibition; for inhibition at 10 µg/mL: 10 μg/ml; for inhibition at 30 µg/mL: 30 μg/ml; for inhibition at 100 µg/mL: 100 μg/ml
Procedure: as §4, §5, §6, §7, §8, §9, §3

ZR-75-1 = assay: In vitro cytotoxicity (SRB), ZR-75-1; settings: Homo sapiens; ZR-75-1 (breast), 100 μg/ml, 48-hours; read-out: Percent growth inhibition
Procedure: as §1, §2, §3

MCF-7 = assay: In vitro cytotoxicity (SRB), MCF-7; settings: Homo sapiens, MCF7, MCF-7 (breast), 48-hours, read-out: Percent growth inhibition; for inhibition at 10 µg/mL: 10 μg/ml; for inhibition at 30 µg/mL: 30 μg/ml; for inhibition at 100 µg/mL: 100 μg/ml
Procedure: as §4, §5, §6, §7, §8, §9, §3

Hep-2 = assay: In vitro cytotoxicity (SRB), Hep-2; settings: Homo sapiens; Hep-2 (liver), 100 μg/ml, 48-hours; read-out: Percent growth inhibition
Procedure: as §1, §2, §3

cancer cells of cervix = assay: Growth inhibition of cancer cells of cervix; settings: Homo sapiens; concentration of about 100 μg/ml; SiHa; read-out: inhibits the growth of cancer cells of cervix
Procedure: as §1, §2, §3

cancer cells of colon = assay: Growth inhibition of cancer cells of colon; settings: Homo sapiens; concentration of about 100 μg/ml; Colo-205, HT-29 and SW-620; read-out: inhibits the growth of cancer cells of colon
Procedure: as §1, §2, §3

SMILES	inhibition at 100 µg/mL (SKNMC) [%]	inhibition at 100 µg/mL (IMR-32) [%]	inhibition at 30 µg/mL (SW-620) [%]	inhibition at 100 µg/mL (SW-620) [%]	inhibition at 100 µg/mL (cancer cells of breast) [%]	inhibition at 10 µg/mL (A-549) [%]	inhibition at 30 µg/mL (A-549) [%]	inhibition at 100 µg/mL (A-549) [%]	inhibition at 100 µg/mL (cancer cells of lung) [%]	inhibition at 30 µg/mL (HT-29) [%]	inhibition at 100 µg/mL (HT-29) [%]	inhibition at 100 µg/mL (cancer cells of liver) [%]	inhibition at 100 µg/mL [1] [%]	inhibition of cell growth of the human cancer cell lines studied (in words) (human cancer cell lines)	inhibition at 100 µg/mL (human cancer cell lines) [%]	inhibition at 10 µg/mL (SiHa) [%]	inhibition at 30 µg/mL (SiHa) [%]	inhibition at 100 µg/mL (SiHa) [%]	inhibition at 10 µg/mL (Colo-205) [%]	inhibition at 30 µg/mL (Colo-205) [%]	other results
COc1cc(C[C@H]2COC(=O)[C@@H]2Cc2ccc(O)c(OC)c2)ccc1O [(−)-Matairesinol]	75	77	11	68	≤ 62	19	33	65	≤ 65	10	74	≤ 64	≤ 77	dose dependent inhibition of cell growth	54 to 93	10	29	63	15	28	inhibition at 100 µg/mL (Colo-205): 93%; inhibition at 100 µg/mL (ZR-75-1): 62%; inhibition at 10 µg/mL (MCF-7): 10%; inhibition at 30 µg/mL (MCF-7): 36%; inhibition at 100 µg/mL (MCF-7): 54%; inhibition at 100 µg/mL (Hep-2): 64%; inhibition at 100 µg/mL (cancer cells of cervix): ≤ 63%; inhibition at 100 µg/mL (cancer cells of colon): ≤ 93%
COc1cc(CC2COC(=O)C2(O)Cc2ccc(O)c(OC)c2)ccc1O (stereo in doubt) [(−)-Wikstromol]	44	56	20	50	≤ 51	21	37	56	≤ 56	6	32	≤ 46	≤ 56	dose dependent inhibition of cell growth	32 to 67	16	21	37	5	27	inhibition at 10 µg/mL (SW-620; 10 μg/ml): 14%; inhibition at 100 µg/mL (Colo-205): 67%; inhibition at 100 µg/mL (ZR-75-1): 37%; inhibition at 10 µg/mL (MCF-7): 7%; inhibition at 30 µg/mL (MCF-7): 26%; inhibition at 100 µg/mL (MCF-7): 51%; inhibition at 100 µg/mL (Hep-2): 46%; inhibition at 100 µg/mL (cancer cells of cervix): ≤ 37%; inhibition at 100 µg/mL (cancer cells of colon): ≤ 67%

From patent US7285571B2, “Herbal chemical composition for the treatment of cancer” (Council of Scientific and Industrial Research, priority 2001, dated 2007)
